In patent publication US20080004276A1, “Method for treating non-hodgkin's lymphoma” (priority 2006, published 2008) one finds IC50 data, which are given here for 43 compounds.

pIC50: −log10 of the molar value.

As a reminder, the pIC50 is −log10 of the IC50, conventionally taken in molar units. Low readings indicate a large IC50, high ones a small IC50.

The test system of this assay is Her2. As to the kind of experiment: IC50 range for inhibition of Her2 degradation (Table 8). Type of assay: cell-based. To be noted: Homo sapiens. On the procedure: Human high-Her2 breast carcinoma BT474 (HTB-20), SK-BR-3 (HTB-30) and MCF-7 breast carcinoma (HTB-22) from American Type Culture Collection, VA, USA were grown in Dulbecco's modified Eagle's medium with 4 mM L-glutamine and antibiotics (100 IU/ml penicillin and 100 ug/ml streptomycine; GibcoBRL). To obtain exponential cell growth, cells were trypsinized, counted and seeded at a cell density of 0.5×10^6 cells/ml regularly, every 3 days. All experiments were performed on day 1 after cell passage. […]
After treatment with a compound of the invention, cells were washed twice with 1×PBS/1% FBS, and then stained with anti-Her2-FITC (#340553, BD) for 30 min at 4° C. Cells were then washed three times in FACS buffer before the fixation in 0.5 ml 1% paraformadehydrede. Data was acquired on a FACSCalibur system. Isotype-matched controls were used to establish the non-specific staining of samples and to set the fluorescent markers. A total 10,000 events were recorded from each sample. Data were analysed by using CellQuest software (BD Biosciences).
The compound `COCCOc1ccc(-n2c(S)nnc2-c2ccc(O)cc2O)c2ccccc12` [Compound 2, 3-(2,4-Dihydroxyphenyl)-4-[4-(2-methoxyethoxy)-naphthalen-1-yl]-5-mercapto-triazole] had a pIC50 of 5.00 to 5.52.
`CCOc1ccc2c(-n3c(S)nnc3-c3ccc(O)cc3O)cccc2c1` [Compound 6] showed a pIC50 of 5.00 to 5.52.
Compound `CCCOc1ccc2c(-n3c(S)nnc3-c3ccc(O)cc3O)cccc2c1` [Compound 7] gave a pIC50 of 5.00 to 5.52.
As to `CCc1cc(-c2nnc(S)n2-c2cccc3c(OC)cccc23)c(O)cc1O` [Compound 8, 3-(2,4-Dihydroxy-5-ethyl-phenyl)-4-(5-methoxy-naphthalen-1-yl)-5-mercapto-triazole], the pIC50 was over 5.52.
`CC(C)Oc1ccc2c(-n3c(S)nnc3-c3ccc(O)cc3O)cccc2c1` [Compound 9] had a pIC50 of 5.00 to 5.52.
The compound `CCn1ccc2c(-n3c(S)nnc3-c3ccc(O)cc3O)cccc21` [Compound 13, 3-(2,4-Dihydroxyphenyl)-4-(1-ethyl-indol-4-yl)-5-mercapto-triazole] gave a negative logarithm of the IC50 (pIC50) of over 5.52.
On to `Oc1ccc(-c2nnc(S)n2-c2cccc3c2OCCO3)c(O)c1` [Compound 14, 3-(2,4-Dihydroxyphenyl)-4-(2,3-dihydro-benzo[1,4]dioxin-5-yl)-5-mercapto-triazole], for which the pIC50 was 5.00 to 5.52.
As for `COc1cccc(-n2c(S)nnc2-c2ccc(O)cc2O)c1` [Compound 21, 3-(2,4-Dihydroxyphenyl)-4-(3-methoxyphenyl)-5-mercapto-triazole], the pIC50 was 4.00 to 5.00.
`COc1ccc(-n2c(S)nnc2-c2ccc(O)cc2O)cc1` [Compound 22, 3-(2,4-Dihydroxyphenyl)-4-(4-methoxyphenyl)-5-mercapto-triazole] showed a negative-log IC50 (pIC50) of 4.00 to 5.00.
In the case of `Cc1ccc(-n2c(S)nnc2-c2ccc(O)cc2O)c(C)c1` [Compound 28, 3-(2,4-Dihydroxyphenyl)-4-(2,4-dimethyl-phenyl)-5-mercapto-triazole] it was 5.00 to 5.52.
`Cc1cc(C)cc(-n2c(S)nnc2-c2ccc(O)cc2O)c1` [Compound 30]: the pIC50 was 4.00 to 5.00.
`Cc1cccc(-n2c(S)nnc2-c2ccc(O)cc2O)c1C` [Compound 34, 3-(2,4-Dihydroxyphenyl)-4-(2,3-dimethylphenyl)-5-mercapto-triazole] showed a negative-log IC50 (pIC50) of 5.00 to 5.52.
Compound `Oc1ccc(-c2nnc(S)n2-c2ccc3c4c(cccc24)CC3)c(O)c1` [Compound 36, 3-(2,4-Dihydroxyphenyl)-4-(acenaphthalen-5-yl)-5-mercapto-triazole] had a pIC50 of 5.00 to 5.52.
On to `Oc1ccc(-c2nnc(S)n2-c2cccc(Cl)c2Cl)c(O)c1` [Compound 38, 3-(2,4-Dihydroxyphenyl)-4-(2,3-dichlorophenyl)-5-mercapto-triazole], for which the pIC50 was 5.00 to 5.52.
The compound `COc1cccc2c(-n3c(S)nnc3-c3ccc(O)cc3O)cccc12` [Compound 39, 3-(2,4-Dihydroxyphenyl)-4-(5-methoxynaphthalen-1-yl)-5-mercapto-triazole] showed a pIC50 of over 5.52.
For `Oc1ccc(-c2nnc(S)n2-c2cccc3c2CCCC3)c(O)c1` [Compound 42, 3-(2,4-Dihydroxyphenyl)-4-(1,2,3,4-tetrahydronaphthalen-5-yl)-5-mercapto-triazole] the value was 5.00 to 5.52.
For `Oc1ccc(-c2nnc(S)n2-c2ccc(Cl)c3ccccc23)c(O)c1` [Compound 48, 3-(2,4-Dihydroxyphenyl)-4-(4-chloronaphthalen-1-yl)-5-mercapto-triazole] the value was 5.00 to 5.52; for `Cc1cc(-n2c(S)nnc2-c2ccc(O)cc2O)c2ccccc2n1` [Compound 51, 3-(2,4-Dihydroxyphenyl)-4-(2-methyl-quinolin-4-yl)-5-mercapto-triazole], 4.00 to 5.00; for `CCn1cc(-c2nnc(S)n2-c2cccc3ccccc23)c(O)cc1=O` [Compound 59, 3-(1-ethyl-4-hydroxy-6-oxo-1,6-dihydro-pyridin-3-yl)-4-(naphthalen-1-yl)-5-mercapto-triazole], 4.00 to 5.00.
For the compound `Cn1cc(-c2nnc(S)n2-c2cccc3ccccc23)c(O)cc1=O` [Compound 60], the pIC50 was 4.00 to 5.00.
In the case of `CC(C)(C)c1cc(-n2c(S)nnc2-c2ccc(O)cc2O)cc(C(C)(C)C)c1` [Compound 61, 3-(2,4-Dihydroxy-phenyl)-4-(3,5-di-tert-butylphenyl)-5-mercapto-triazole] it was 4.00 to 5.00; in that of `Oc1nc(O)c(-c2nnc(S)n2-c2cccc3ccccc23)cc1F` [Compound 62, 3-(2,6-Dihydroxy5-fluoro-pyridin-3-yl) 4-(naphthalen-1-yl)-5-mercapto-triazole], 4.00 to 5.00; in that of `Cc1cc(-c2nnc(S)n2-c2cccc3ccccc23)c(O)cc1O` [Compound 63, 3-(2,4-Dihydroxy-5-methyl-phenyl)-4-(naphthalene-1-yl)-5-mercapto-triazole], over 5.52.
As for `O=C(c1ccccc1)c1cccc(-n2c(S)nnc2-c2ccc(O)cc2O)c1` [Compound 64, 3-[2,4-Dihydroxy-phenyl]-4-(3-benzoylphenyl)-5-mercapto-triazole], the pIC50 was 5.00 to 5.52.
Turning to `Oc1ccc(-c2nnc(S)n2-c2cccc3cnccc23)c(O)c1` [Compound 70, 3-(2,4-Dihydroxy-phenyl)-4-(isoquinolin-5-yl)-5-mercapto-triazole], the pIC50 is 5.00 to 5.52.
`CCc1cc(-c2nnc(S)n2-c2ccc(OC)c3ccccc23)c(O)cc1O` [Compound 76, 3-(2,4-Dihydroxy-5-ethyl-phenyl)-4-(4-methoxy-naphthalen-1-yl)-5-mercapto-triazole] gave a pIC50 of over 5.52.
The compound `CCc1cc(-c2nnc(S)n2-c2cccc3cc(OC)ccc23)c(O)cc1O` [Compound 77, 3-(2,4-Dihydroxy-5-ethyl-phenyl)-4-(6-methoxy-naphthalin-1-yl)-5-mercapto-triazole] gave a pIC50 of over 5.52.
`CCc1cc(-c2nnc(S)n2-c2ccc(OC)c(C)c2C)c(O)cc1O` [Compound 79, 3-(2,4-Dihydroxy-5-ethyl-phenyl)-4-(2,3-dimethy-4-methoxy-phenyl)-5-mercapto-triazole] had a pIC50 of over 5.52.
`Oc1ccc(-c2nnc(S)n2-c2ccc(O)c3ccccc23)c(O)c1` [Compound 87, 3-(2,4-Dihydroxyphenyl)-4-(4-hydroxy-naphthalen-1-yl)-5-mercapto-triazole] had a pIC50 of over 5.52.
Turning to `CC(C)n1ccc2c(-n3c(S)nnc3-c3ccc(O)cc3O)cccc21` [Compound 88, 3-(2,4-Dihydroxyphenyl)-4-(1-isopropyl-indol-4-yl)-5-mercapto-triazole], the pIC50 is over 5.52.
As to `COc1cccc(-n2c(S)nnc2-c2ccc(O)cc2O)c1OC` [Compound 93, 3-(2,4-Dihydroxy-phenyl)-4-(2,3-dimethoxy-phenyl)-5-mercapto-triazole], the pIC50 was 5.00 to 5.52.
`Oc1ccc(-c2nnc(S)n2-c2cccc3[nH]ccc23)c(O)c1` [Compound 95, 3-(2,4-Dihydroxy-phenyl)-4-(indol-4-yl)-5-mercapto-triazole] had a pIC50 of over 5.52.
For `COCCn1ccc2c(-n3c(S)nnc3-c3ccc(O)cc3O)cccc21` [Compound 96], the pIC50 was over 5.52.
The compound `[O-][n+]1ccc(-c2nnc(S)n2-c2cccc3ccccc23)c(O)c1` [Compound 98, 3-(1-Oxo-3-hydroxy-pyridin-4-yl)-4-(naphthalen-1-yl)-5-mercapto-triazole] gave a pIC50 of 4.00 to 5.00.
With `O=C(O)c1cc(O)c(-c2nnc(S)n2-c2cccc3ccccc23)cc1O` [Compound 99, 3-(2,5-Dihydroxy-4-carboxy)-4-(naphthalen-1-yl)-5-mercapto-triazole], the pIC50 was 4.00 to 5.00.
With `CCc1cc(-c2nnc(S)n2-c2cccc3c2ccn3C(C)C)c(O)cc1O` [Compound 100, 3-(2,4-Dihydroxy-5-ethyl-phenyl)-4-(1-isopropyl-indol-4-yl)-5-mercapto-triazole], the pIC50 is over 5.52.
In the case of `CCc1cc(-c2nnc(S)n2-c2cccc3c2ncn3CC)c(O)cc1O` [Compound 102, 3-(2,4-Dihydroxy-5-ethyl-phenyl)-4-(1-ethyl-benzoimidazol-4-yl)-5-mercapto-triazole] it was 4.00 to 5.00.
With `CCc1cc(-c2nnc(S)n2-c2ccc3c(c2)c(C)c(C)n3C)c(O)cc1O` [Compound 103, 3-(2,4-Dihydroxy-5-ethyl-phenyl)-4-(1,2,3-trimethyl-indol-5-yl)-5-mercapto-triazole], the pIC50 is over 5.52.
Compound `OCc1cc(O)c(-c2nnc(S)n2-c2cccc3ccccc23)cc1O` [Compound 104, 3-(2,5-Dihydroxy-4-hydroxymethyl-phenyl)-4-(naphthalen-1-yl)-5-mercapto-triazole] had a pIC50 of 4.00 to 5.00.
`CC(=O)Oc1ccc(-c2nnc(SC(C)=O)n2-c2cccc3ccccc23)c(OC(C)=O)c1` [Compound 122, 3-(2,4-Diacetoxy-phenyl)-4-(naphthalen-1-yl)-5-(acetylsulfanyl)-triazole] gave a pIC50 of 5.00 to 5.52.
`CC(=O)Oc1ccc(-c2nnc(S)n2-c2cccc3ccccc23)c(OC(C)=O)c1` [Compound 123, 3-(2,4-Diacetoxy-phenyl)-4-(naphthalen-1-yl)-5-mercapto-triazole] gave a pIC50 of 4.00 to 5.00.
For the compound `COc1cc(-c2nnc(S)n2-c2cccc3ccccc23)c(O)cc1O` [Compound 177, 3-(2,4-Dihydroxy-5-methoxy-phenyl)-4-(naphthalen-1-yl)-5-mercapto-triazole], the pIC50 is over 5.52.
For `CCc1cc(-c2nnc(S)n2-c2cccc3c(O)cccc23)c(O)cc1O` [Compound 178, 3-(2,4-Dihydroxy-5-ethyl-phenyl)-4-(5-hydroxy-naphthalen-1-yl)-5-mercapto-triazole] the value was over 5.52.
